In brackets after ≈: the same amount, converted by molar mass. Starred links: 1 amine or outer side, 2 acyl side, 3 side chain; linkers in the order of their positions; H or OH if unused. Non-standard residues stand in square brackets, D forms with d. Residues, ends and D or L forms follow the SMILES beside them. *: point of attachment. 1Nal = N[C@@H](Cc1cccc2ccccc12)C(=O)O; d(hArg) = N=C(N)NCCCC[C@@H](N)C(=O)O; Ethylenediamine = C(CN[*:2])N[*:1]; Palmitoyl = CCCCCCCCCCCCCCCC(=O)*; Lauroyl = CCCCCCCCCCCC(=O)*; Octanoyl = CCCCCCCC(=O)*; Hexanoyl = CCCCCC(=O)*
Experiments:
Format in all cases: cell-based
[1] = test system: Staphylococcus aureus ATCC 29213; experiment: MIC, NCCLS M7-A6 broth microdilution, cation-adjusted Mueller Hinton broth (Table 9, no superscript); details: ATCC 29213
Summary of the method: (§1)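 Log-phase bacteria were added to wells containing peptide in cation-adjusted Mueller Hinton broth at a final 5×10^5 to 1×10^6 CFU/milliliter. Plates then sat overnight at 37° C. Wells were scored visually for turbidity against a peptide-free control.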

[2] = test system: Escherichia coli ATCC 25922; experiment: MIC, NCCLS M7-A6 broth microdilution (Table 9, no superscript); details: ATCC 25922
Summary of the method: as §1

[3] = test system: Pseudomonas aeruginosa ATCC 27853; experiment: as above; details: ATCC 27853
Summary of the method: as §1

Salmonella dublin (Lane) = experiment: as above
Summary of the method: as §1

[4] = test system: Staphylococcus epidermidis ATCC 12228; experiment: as above; details: ATCC 12228
Summary of the method: as §1

MIC S. aureus [1] [µg/mL] | MIC E. coli [2] [µg/mL] | MIC P. aeruginosa [3] [µg/mL] | MIC S. dublin (Salmonella dublin (Lane)) [µg/mL] | MIC S. epidermidis [4] [µg/mL] | SMILES
>64 | >64 | >64 | >64 | 16 (≈ 8.52 µM) | CSCC[C@H](NC(=O)[C@H](Cc1ccccc1)NC(=O)[C@H](CC(N)=O)NC(=O)[C@H](CCCNC(=N)N)NC(=O)[C@H](C)NC(=O)[C@H](Cc1c[nH]c2ccccc12)NC(=O)[C@H](CC(=O)O)NC(=O)[C@H](CCCNC(=N)N)NC(=O)[C@H](Cc1c[nH]c2ccccc12)NC(=O)[C@H](CCCNC(=N)N)NC(=O)[C@H](CO)NC(=O)[C@H](CCCNC(=N)N)NC(C)=O)C(=O)N[C@@H](CCCNC(=N)N)C(N)=O [Peptide 94, Ac-RSRWRDWARNFMR-NH2] (Ac-RSRWRDWARNFMR-NH2)
32 (≈ 15.6 µM) | 64 (≈ 31.1 µM) | >64 | 8 (≈ 3.89 µM) | 4 (≈ 1.94 µM) | CCCCCCCCCCCC(=O)N[C@@H](CCCNC(=N)N)C(=O)N[C@@H](CO)C(=O)N[C@@H](CCCNC(=N)N)C(=O)N[C@@H](Cc1c[nH]c2ccccc12)C(=O)N[C@@H](CCCNC(=N)N)C(=O)N[C@@H](CC(=O)O)C(=O)N[C@H](C(=O)N[C@@H](Cc1cccc2ccccc12)C(=O)N[C@@H](CCCNC(=N)N)C(=O)N[C@@H](CC(N)=O)C(=O)N[C@@H](Cc1ccccc1)C(=O)N[C@@H](CCSC)C(=O)N[C@@H](CCCNC(=N)N)C(N)=O)C(C)C [Peptide 151, Lauryl-RSRWRDVZRNFMR-NH2 Z = 1-naphthylalanine] (Lauroyl-RSRWRDV[1Nal]RNFMR-NH2)
8 (≈ 3.92 µM) | 32 (≈ 15.7 µM) | 64 (≈ 31.4 µM) | 64 (≈ 31.4 µM) | 8 (≈ 3.92 µM) | CCCCCCCCCCCC(=O)N[C@@H](CCCNC(=N)N)C(=O)N[C@@H](CO)C(=O)N[C@@H](CCCNC(=N)N)C(=O)N[C@@H](Cc1cccc2ccccc12)C(=O)N[C@@H](CCCNC(=N)N)C(=O)N[C@@H](CC(=O)O)C(=O)N[C@@H](Cc1cccc2ccccc12)C(=O)N[C@@H](C)C(=O)N[C@@H](CCCNC(=N)N)C(=O)N[C@@H](CC(N)=O)C(=O)N[C@@H](Cc1ccccc1)C(=O)N[C@@H](CCSC)C(=O)N[C@@H](CCCNC(=N)N)C(N)=O [Peptide 153, Lauryl-RSRZRDZARNFMR-NH2 Z = 1-naphthylalanine] (Lauroyl-RSR[1Nal]RD[1Nal]ARNFMR-NH2)
4 (≈ 2.01 µM) | 64 (≈ 32.1 µM) | >64 | 8 (≈ 4.02 µM) | 8 (≈ 4.02 µM) | CCCCCCCCCCCC(=O)N[C@@H](CCCNC(=N)N)C(=O)N[C@@H](CO)C(=O)N[C@@H](CCCNC(=N)N)C(=O)N[C@@H](Cc1cccc2ccccc12)C(=O)N[C@@H](CCCNC(=N)N)C(=O)N[C@@H](CC(=O)O)C(=O)N[C@H](C(=O)N[C@@H](C)C(=O)N[C@@H](CCCNC(=N)N)C(=O)N[C@@H](CC(N)=O)C(=O)N[C@@H](Cc1cccc2ccccc12)C(=O)N[C@@H](CCSC)C(=O)N[C@@H](CCCNC(=N)N)C(N)=O)C(C)C [Peptide 154, Lauryl-RSRZRDVARNZMR-NH2 Z = 1-naphthylalanine] (Lauroyl-RSR[1Nal]RDVARN[1Nal]MR-NH2)
64 (≈ 30.6 µM) | >64 | >64 | 16 (≈ 7.65 µM) | 16 (≈ 7.65 µM) | CCCCCCCCCCCC(=O)N[C@@H](CCCNC(=N)N)C(=O)N[C@@H](CO)C(=O)N[C@@H](CCCNC(=N)N)C(=O)N[C@@H](Cc1cccc2ccccc12)C(=O)N[C@@H](CCCNC(=N)N)C(=O)N[C@@H](CC(=O)O)C(=O)N[C@@H](Cc1cccc2ccccc12)C(=O)N[C@@H](C)C(=O)N[C@@H](CCCNC(=N)N)C(=O)N[C@@H](CC(N)=O)C(=O)N[C@@H](Cc1cccc2ccccc12)C(=O)N[C@@H](CCSC)C(=O)N[C@@H](CCCNC(=N)N)C(N)=O [Peptide 155, Lauryl-RSRZRDZARNZMR-NH2 Z = 1-naphthylalanine] (Lauroyl-RSR[1Nal]RD[1Nal]ARN[1Nal]MR-NH2)
32 (≈ 15.4 µM) | 64 (≈ 30.8 µM) | >64 | 8 (≈ 3.85 µM) | 16 (≈ 7.69 µM) | CCCCCCCCCCCC(=O)N[C@@H](CCCNC(=N)N)C(=O)N[C@@H](CO)C(=O)N[C@@H](CCCNC(=N)N)C(=O)N[C@@H](Cc1c[nH]c2ccccc12)C(=O)N[C@@H](CCCNC(=N)N)C(=O)N[C@@H](CC(=O)O)C(=O)N[C@@H](Cc1cccc2ccccc12)C(=O)N[C@@H](C)C(=O)N[C@@H](CCCNC(=N)N)C(=O)N[C@@H](CC(N)=O)C(=O)N[C@@H](Cc1cccc2ccccc12)C(=O)N[C@@H](CCSC)C(=O)N[C@@H](CCCNC(=N)N)C(N)=O [Peptide 156, Lauryl-RSRWRDZARNZMR-NH2 Z = 1-naphthylalanine] (Lauroyl-RSRWRD[1Nal]ARN[1Nal]MR-NH2)
8 (≈ 4 µM) | 16 (≈ 7.99 µM) | 32 (≈ 16 µM) | 64 (≈ 32 µM) | 8 (≈ 4 µM) | CCCCCCCCCCCC(=O)N[C@H](CCCCNC(=N)N)C(=O)N[C@H](CO)C(=O)N[C@H](CCCCNC(=N)N)C(=O)N[C@H](Cc1c[nH]c2ccccc12)C(=O)N[C@H](CCCCNC(=N)N)C(=O)N[C@H](CC(=O)O)C(=O)N[C@@H](C(=O)N[C@H](C)C(=O)N[C@H](CCCCNC(=N)N)C(=O)N[C@H](CC(N)=O)C(=O)N[C@H](Cc1ccccc1)C(=O)N[C@H](CCSC)C(=O)N[C@H](CCCCNC(=N)N)C(N)=O)C(C)C [Peptide 159, Lauryl-xsxwxdvaxnfmx-NH2 x = D-homoarginine] (Lauroyl-[d(hArg)][dS][d(hArg)][dW][d(hArg)][dD][dV][dA][d(hArg)][dN][dF][dM][d(hArg)]-NH2)
8 (≈ 4.55 µM) | 16 (≈ 9.11 µM) | >64 | >64 | 4 (≈ 2.28 µM) | CCCCCCCCCCCC(=O)N[C@@H](CCCNC(=N)N)C(=O)N[C@@H](CO)C(=O)N[C@@H](CCCNC(=N)N)C(=O)N[C@@H](Cc1c[nH]c2ccccc12)C(=O)N[C@@H](CCCNC(=N)N)C(=O)N[C@@H](CC(=O)O)C(=O)N[C@H](C(=O)N[C@@H](C)C(=O)N[C@@H](CCCNC(=N)N)C(=O)N[C@@H](CC(N)=O)C(=O)N[C@@H](Cc1ccccc1)C(=O)N[C@@H](CC(C)C)C(N)=O)C(C)C [Peptide 161, Lauryl-RSRWRDVARNFL-NH2] (Lauroyl-RSRWRDVARNFL-NH2)
4 (≈ 2.28 µM) | 32 (≈ 18.2 µM) | >64 | 16 (≈ 9.11 µM) | 8 (≈ 4.55 µM) | CCCCCCCCCCCC(=O)N[C@@H](CO)C(=O)N[C@@H](CCCNC(=N)N)C(=O)N[C@@H](Cc1c[nH]c2ccccc12)C(=O)N[C@@H](CCCNC(=N)N)C(=O)N[C@@H](CC(=O)O)C(=O)N[C@H](C(=O)N[C@@H](C)C(=O)N[C@@H](CCCNC(=N)N)C(=O)N[C@@H](CC(N)=O)C(=O)N[C@@H](Cc1ccccc1)C(=O)N[C@@H](CC(C)C)C(=O)N[C@@H](CCCNC(=N)N)C(N)=O)C(C)C [Peptide 162, Lauryl-SRWRDVARNFLR-NH2] (Lauroyl-SRWRDVARNFLR-NH2)
>64 | >64 | >64 | >64 | 64 (≈ 31.8 µM) | CCCCCCCCCCCCCCCC(=O)NCCNC(=O)[C@H](CCCNC(=N)N)NC(=O)[C@H](CC(C)C)NC(=O)[C@H](Cc1ccccc1)NC(=O)[C@H](CC(N)=O)NC(=O)[C@H](CCCNC(=N)N)NC(=O)[C@H](C)NC(=O)[C@@H](NC(=O)[C@H](CC(=O)O)NC(=O)[C@H](CCCNC(=N)N)NC(=O)[C@H](Cc1c[nH]c2ccccc12)NC(=O)[C@H](CCCNC(=N)N)NC(=O)[C@H](CO)NC(=O)[C@@H](N)CCCNC(=N)N)C(C)C [Peptide 172, H2N-RSRWRDVARNFLR-Ethylamidopalmitoyl] (H-RSRWRDVARNFLR-{Ethylenediamine-Palmitoyl}; C-terminus assumed)
>64 | 8 (≈ 4.09 µM) | 16 (≈ 8.17 µM) | 16 (≈ 8.17 µM) | 2 (≈ 1.02 µM) | CCCCCC(=O)NCCCC[C@H](NC(=O)[C@H](CCCNC(=N)N)NC(=O)[C@H](CC(C)C)NC(=O)[C@H](Cc1ccccc1)NC(=O)[C@H](CC(N)=O)NC(=O)[C@H](CCCNC(=N)N)NC(=O)[C@H](C)NC(=O)[C@@H](NC(=O)[C@H](CC(=O)O)NC(=O)[C@H](CCCNC(=N)N)NC(=O)[C@H](Cc1c[nH]c2ccccc12)NC(=O)[C@H](CCCNC(=N)N)NC(=O)[C@H](CO)NC(=O)[C@@H](N)CCCNC(=N)N)C(C)C)C(N)=O [Peptide 178, H2N-RSRWRDVARNFLRK(Hexanyl)-NH2] (H-RSRWRDVARNFLRK(Hexanoyl)-NH2)
32 (≈ 16.1 µM) | 32 (≈ 16.1 µM) | 64 (≈ 32.2 µM) | 64 (≈ 32.2 µM) | 8 (≈ 4.03 µM) | CCCCCCCC(=O)NCCCC[C@H](NC(=O)[C@H](CCCNC(=N)N)NC(=O)[C@H](CC(C)C)NC(=O)[C@H](Cc1ccccc1)NC(=O)[C@H](CC(N)=O)NC(=O)[C@H](CCCNC(=N)N)NC(=O)[C@H](C)NC(=O)[C@@H](NC(=O)[C@H](CC(=O)O)NC(=O)[C@H](CCCNC(=N)N)NC(=O)[C@H](Cc1c[nH]c2ccccc12)NC(=O)[C@H](CCCNC(=N)N)NC(=O)[C@H](CO)NC(=O)[C@@H](N)CCCNC(=N)N)C(C)C)C(N)=O [Peptide 179, H2N-RSRWRDVARNFLRK(Octanyl)-NH2] (H-RSRWRDVARNFLRK(Octanoyl)-NH2)

From patent publication US20050282755A1, “Compositions having antimicrobial activity and uses thereof” (priority 2004, published 2005)
